{"source": "patent US8597660B2", "about": "“Therapeutic approach to neurodegenerative disorders using a TFP5-peptide” (The United States of America, as represented by the …, priority 2010, dated 2013)", "key": {"[1]": {"molecular_target": "T1, Cdk5/P25 (Rattus norvegicus, UniProt Q03114)", "T1 construct": "endogenous in cells; host or cells: E-18 rat cortical neurons treated with 10 uM Abeta1-42", "T1 sequence (Q03114 whole entry)": "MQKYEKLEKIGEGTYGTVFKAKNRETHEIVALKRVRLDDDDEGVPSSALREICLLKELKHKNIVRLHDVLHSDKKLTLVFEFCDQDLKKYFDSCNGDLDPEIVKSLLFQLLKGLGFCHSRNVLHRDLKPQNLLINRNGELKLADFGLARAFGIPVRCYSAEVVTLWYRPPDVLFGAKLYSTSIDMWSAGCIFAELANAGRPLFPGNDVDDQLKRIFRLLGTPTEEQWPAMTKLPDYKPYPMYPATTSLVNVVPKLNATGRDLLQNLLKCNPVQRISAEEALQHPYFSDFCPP", "assay": "In vitro kinase assay on Cdk5 immunoprecipitates of Aβ1-42-treated cortical neurons with added P5 peptide", "assay_type": "biochemical", "conditions": "P5 0.45 μM or above", "method": "(§1) Kinase assays were performed as previously described (Veeranna, et al., J Neurosci 18(11), 4008-4021, 1998). Briefly, 7 days in culture (7 DIC) primary rat cortical neurons were infected with P25, P35, Cdk5 wild-type, dominant negative-Cdk5 and P5 using the lentiviral gene delivery as described earlier. Cdk5 was immunoprecipitated using the polyclonal C8 antibody overnight at 4° C. and immunoglobulin isolated using Protein A sepharose beads for 2 hours at 4° C. Immunoprecipitates were washed three times with lysis buffer and then once with 1× kinase buffer containing 20 mM Tris-Cl pH 7.4, 1 mM EDTA, 1 mM EGTA, 10 mM MgCl2, 10 mM sodium fluoride and 1 mM sodium orthovanadate. Endogenous Cdks were immunoprecipitated from HEK 293 cells using their respective antibodies and treated as above. Kinase assays were performed in the same buffer containing 1 mM DTT, 0.1 mM ATP and 0.185 MBq [γ-32P] ATP with 20 μg of histone H1 as the substrate. […]\nTo determine the minimum dose at which the P5 peptide is an efficient inhibitor of Cdk5/P25 hyperactivity under physiological conditions, cortical neurons were treated with Aβ1-42 to induce the expression of P25 and Cdk5 hyperactivation, Cdk5 immunoprecipitates were prepared and the effect of different concentrations of P5 was evaluated (FIG. 6)."}, "[2]": {"system": "tau phosphorylation", "assay": "Aβ-induced tau phosphorylation in cortical neurons, Western blot", "assay_type": "cell-based, rat", "conditions": "Aβ 6 h", "method": "Primary cultures of rat cortical neurons were prepared from E-18 rat fetuses as described previously (Zheng et al., J Biol Chem 278(26), 24026-24032, 2003). After 7 days, cells were infected independently or co-infected with empty vector (EV), the constructs of P5, P25, P35, wild-type Cdk5 and dominant negative Cdk5 (changing Lys33 to Thr33) using the Adenoviral vector (pAdTrack-CMV) packaging system as described above. […] The cells were fixed for immunocytochemistry analyses (ICC) or lysed with lysis buffer for immunoprecipitation and Western blot analyses. Cortical neuron cultures were prepared and plated on the cover slips as described. Human embryo kidney cells (HEK293) were grown as described previously (Zheng et al., Eur J Biochem 269(18), 4427-4434, 2002). In these studies HEK293 cells on day 1, or neurons on day 5, were transfected with or without Myc-P5-GFP using Lipofectamine 2000 following the manufacturer's instructions.\nWestern blot analysis was performed as previously described (Zheng et al., Eur J Biochem 269(18), 4427-4434, 2002). In brief, an equal amount of total protein (20 μg/lane) was resolved on a 4-20% SDS polyacrylamide gel and blotted onto a polyvinylidene difluoride membrane. This membrane was incubated in blocking buffer containing 20 mM Tris-HCl (pH 7.4), 150 mM NaCl, and 0.1% (vol/vol) Tween 20 (TTBS) plus 5% dry milk (w/v) for 1 hour at room temperature followed by incubation overnight at 4° C. in primary antibodies (see antibodies). The membranes were then washed four times in TTBS (5 minutes/each) followed by incubation in secondary antibody (goat-antimouse or goat anti-rabbit IgG (H+L)-horseradish peroxidase (HRP) conjugate at a dilution of 1:3000) for 1 hour at room temperature. Western blots were analyzed using the Amersham Enhanced Chemiluminescence (ECL) kit following the manufacturer's instructions (GE Healthcare, Piscataway, N.J.).\nAmyloid plaques and neurofibrillary tangles, pathological hallmarks of several neurodegenerative disorders, are linked to deregulated Cdk5 and neuronal death. According to one model, β amyloid, being toxic, may evoke abnormal calcium influx into neurons which activates calpains. […] Hyperactivation of Cdk5, leads to the aberrant phosphorylation of tau and neurofilaments in a number of neurodegenerative diseases including AD and ALS. For example, primary cortical neurons, when treated with Aβ1-42 are induced to form Cdk5/P25 complexes, hyperactive Cdk5 activity, hyperphosphorylation of tau, and neuronal apoptosis. To determine whether P5 will inhibit endogenous tau phosphorylation induced by Aβ treatment in cortical neurons, 7 day old cortical neurons, infected with empty vector (EV) or with P5 were treated with Aβ for 6 hours, lysed and prepared for Cdk5 immunoprecipitation and kinase assay. Aβ treatment causes an approximate 3-fold increase in endogenous Cdk5 activity as visualized by histone H1 phosphorylation (FIG. 4A, panel 5, lane 2; FIG. 4B).\n; FIG. 4D). […] Tau antibodies p-Ser404, PHF antibody AT180 (recognizes p-Thr231) and p-Ser422 antibodies were used to observe whether P5 affects other tau phosphorylation residues (FIGS. 4E, 4F). […]. Tau 5 recognizes total tau, nonphosphorylated as well as phosphorylated."}, "[3]": {"molecular_target": "Cdk5/P35 (Homo sapiens, UniProt Q00535)", "sequence (Q00535 whole entry, species assumed)": "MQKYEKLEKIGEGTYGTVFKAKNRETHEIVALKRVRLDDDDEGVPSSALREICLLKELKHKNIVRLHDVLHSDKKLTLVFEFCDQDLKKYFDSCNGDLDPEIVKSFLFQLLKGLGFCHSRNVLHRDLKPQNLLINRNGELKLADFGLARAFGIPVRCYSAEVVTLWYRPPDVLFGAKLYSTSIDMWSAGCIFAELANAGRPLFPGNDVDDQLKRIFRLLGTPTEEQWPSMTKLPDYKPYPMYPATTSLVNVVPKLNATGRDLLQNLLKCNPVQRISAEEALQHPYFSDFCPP", "assay": "In vitro kinase (pad) assay of active Cdk5/P35 with histone H1 as substrate", "assay_type": "biochemical", "conditions": "0.7 μM P5", "method": "as §1, with “above.” for “above. Kinase assays were performed in the same buffer containing 1 mM DTT, 0.1 mM ATP and 0.185 MBq [γ-32P] ATP with 20 μg of histone H1 as the substrate.”\nIn a dose-dependent kinase assay the effective inhibitory concentration of P5 for both the Cdk5/P25 and Cdk5/P35 complexes was evaluated. […]\nP5, a 24 amino acid peptide derived from Cdk5 regulator p35, was modified by conjugating it with TAT PTD at the C-terminal end and with FITC (using a GGG linker) at the N-terminus to produce a fluorescent (FITC-labeled) TFP5 (SEQ ID NO: 2) peptide. In a dose-dependent kinase assay the effective inhibitory concentration of TFP5 for both the Cdk5/P25 and Cdk5/P35 complexes was evaluated. […]"}}, "note": "“Also recorded” adds a separate entry of the source."}
{"substance": "P5: 24 residue peptide derived from Cdk5 activator P35 (K254-A277 of SEQ ID NO: 16); Cdk5 inhibitory peptide (KEAFWDRCLSVINLMSSKMLQINA; listed as Homo sapiens)", "values": [{"measurement": "Aβ1-42-induced Cdk5 hyperactivity", "setting": "[1]", "value": "totally eliminated"}, {"measurement": "Aβ-induced tau phosphorylation at Ser404", "setting": "[2]; P5 infection", "value": "reduces phosphorylation at Thr 231 and Ser404; also recorded: significantly inhibits tau phosphorylation at S404 and T231"}, {"measurement": "Aβ-induced tau phosphorylation at Thr231 (AT180)", "setting": "[2]; P5 infection", "value": "reduces phosphorylation at Thr 231 and Ser404; also recorded: significantly inhibits tau phosphorylation at S404 and T231"}, {"measurement": "Aβ-induced tau phosphorylation at Ser422", "setting": "[2]; P5 infection or roscovitine", "value": "only a modest affect on Ser 422; also recorded: slight decrease of tau phosphorylation at the Ser422 site, is not significant"}, {"measurement": "Aβ-induced tau phosphorylation detected by AT8 and p-Ser199/202 antibodies", "setting": "[2]; P5 infection or roscovitine", "value": "baseline levels of tau phosphorylation; also recorded: restoring it to basal levels"}, {"measurement": "Inhibition of Cdk5/P35 activity", "setting": "[3]", "value": "approximately 70%"}]}
